Reference: US5328900A, “Anti-thrombotic peptide and pseudopeptide derivatives” (Rhone-Poulenc Rorer Pharmaceuticals Inc., priority 1992, dated 1994)
Where a SMILES comes first, the peptide text is derived from it. [ ]: non-standard residue; d: D form. Aze = O=C(O)[C@@H]1CCN1; Inp = O=C(O)C1CCNCC1

Columns and labels:
Human platelets = assay: Inhibition of fibrinogen-mediated platelet aggregation; assay type: cell-based; settings: for IC50: thrombin-activated human platelets, rate of aggregation
Experimental: II. Inhibition of Fibrinogen-Mediated Platelet Aggregation, which is essentially based on the method described in Blood, Vol. 66, No. 4, October 1985, pp. 946-952, and is as follows.
Human platelets were isolated from freshly drawn whole blood and were suspended in 0.14 mol/L NaCl, 2.7 mmol/L […], 12 mmol/L NaHCO3, 0.42 mmol/L Na2 HPO4, 0.55 mmol/L glucose, and 5 mmol/L Hepes, pH 7.35 at 2×10^8 platelets/ml. The suspension was incubated at 37° C. An aliquot of 0.4 ml of platelet suspension was activated by human thrombin at a final concentration of 2 μg/ml of thrombin for one minute. After one minute the reaction was stopped by a thrombin inhibitor. Serial dilution of the compound being tested was then added to the activated platelet, the reaction was allowed to proceed for one minute, followed by the addition of human fibrinogen at a final concentration of […] of fibrinogen. Platelet aggregation was then recorded by an aggregometer. Rate of aggregation was used to calculate IC50.

[1] = target: T1, fibrinogen binding to thrombin-stimulated platelets (Homo sapiens, UniProt P05106+P08514); assay: Inhibition of radiolabeled (125I) fibrinogen binding assay
T1 construct: endogenous in cells; host or cells: washed platelets stimulated with human alpha-thrombin
Experimental: I. Inhibition of Radiolabeled (^125 I) Fibrinogen Binding Assay, which is essentially based on the method described in Proc. Natl. Acad. Sci. USA Vol. 83, pp. 5708-5712, August 1986, and is as follows.
Platelets are washed free of plasma constituents by the albumin density-gradient technique. In each experimental mixture platelets in modified Tyrode's buffer are stimulated with human α-thrombin at 22°-25° C. for 10 minutes (3.125×10" platelets per liter and thrombin at […]). Hirudin is then added at a 25-fold excess for 5 minutes before addition of the radiolabeled ligand and any competing ligand. After these additions, the final platelet count in the mixture is 1×10"/liter. After incubation for an additional 30 minutes at 22°-25° C., bound and free ligand are separated by centrifuging 50 μl of the mixture through 300 μl of 20% sucrose at 12,000×g for 4 minutes. The platelet pellet is then separated from the rest of the mixture to determine platelet-bound radioactivity. Nonspecific binding is measured in mixtures containing an excess of unlabeled ligand. When binding curves are analyzed by Scatchard analysis, nonspecific binding is derived as a fitted parameter from the binding isotherm by means of a computerized program. […]

T1 sequence (P08514 32-887 limits assumed): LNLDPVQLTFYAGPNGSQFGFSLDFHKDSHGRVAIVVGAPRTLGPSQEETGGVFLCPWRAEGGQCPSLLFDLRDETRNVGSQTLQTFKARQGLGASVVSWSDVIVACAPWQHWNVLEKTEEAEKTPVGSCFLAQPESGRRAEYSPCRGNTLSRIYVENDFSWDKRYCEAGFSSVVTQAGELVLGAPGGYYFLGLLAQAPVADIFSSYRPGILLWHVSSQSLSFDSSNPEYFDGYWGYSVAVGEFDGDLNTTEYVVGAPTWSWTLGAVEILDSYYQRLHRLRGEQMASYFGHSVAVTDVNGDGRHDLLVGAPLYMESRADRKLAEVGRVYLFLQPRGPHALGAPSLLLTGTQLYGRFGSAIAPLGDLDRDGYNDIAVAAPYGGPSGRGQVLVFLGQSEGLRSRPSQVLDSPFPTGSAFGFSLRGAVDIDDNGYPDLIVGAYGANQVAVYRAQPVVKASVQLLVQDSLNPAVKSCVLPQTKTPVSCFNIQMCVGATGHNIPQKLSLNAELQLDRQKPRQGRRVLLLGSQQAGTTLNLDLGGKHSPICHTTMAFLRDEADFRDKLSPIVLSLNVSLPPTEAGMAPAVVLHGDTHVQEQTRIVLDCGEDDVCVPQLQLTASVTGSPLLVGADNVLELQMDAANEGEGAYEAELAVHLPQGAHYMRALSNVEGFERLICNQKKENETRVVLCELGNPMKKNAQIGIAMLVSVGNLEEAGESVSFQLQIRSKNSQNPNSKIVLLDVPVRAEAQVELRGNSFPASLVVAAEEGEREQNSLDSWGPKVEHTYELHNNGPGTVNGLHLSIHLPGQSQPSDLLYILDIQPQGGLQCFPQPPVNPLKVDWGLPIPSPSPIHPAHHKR
T1 sequence (P08514 891-1039 partner limits assumed): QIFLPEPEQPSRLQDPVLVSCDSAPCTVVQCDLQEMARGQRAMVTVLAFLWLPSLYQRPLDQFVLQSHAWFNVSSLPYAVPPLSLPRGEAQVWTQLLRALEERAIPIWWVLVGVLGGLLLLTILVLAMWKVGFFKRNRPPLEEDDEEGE
T1 sequence (P05106 27-788): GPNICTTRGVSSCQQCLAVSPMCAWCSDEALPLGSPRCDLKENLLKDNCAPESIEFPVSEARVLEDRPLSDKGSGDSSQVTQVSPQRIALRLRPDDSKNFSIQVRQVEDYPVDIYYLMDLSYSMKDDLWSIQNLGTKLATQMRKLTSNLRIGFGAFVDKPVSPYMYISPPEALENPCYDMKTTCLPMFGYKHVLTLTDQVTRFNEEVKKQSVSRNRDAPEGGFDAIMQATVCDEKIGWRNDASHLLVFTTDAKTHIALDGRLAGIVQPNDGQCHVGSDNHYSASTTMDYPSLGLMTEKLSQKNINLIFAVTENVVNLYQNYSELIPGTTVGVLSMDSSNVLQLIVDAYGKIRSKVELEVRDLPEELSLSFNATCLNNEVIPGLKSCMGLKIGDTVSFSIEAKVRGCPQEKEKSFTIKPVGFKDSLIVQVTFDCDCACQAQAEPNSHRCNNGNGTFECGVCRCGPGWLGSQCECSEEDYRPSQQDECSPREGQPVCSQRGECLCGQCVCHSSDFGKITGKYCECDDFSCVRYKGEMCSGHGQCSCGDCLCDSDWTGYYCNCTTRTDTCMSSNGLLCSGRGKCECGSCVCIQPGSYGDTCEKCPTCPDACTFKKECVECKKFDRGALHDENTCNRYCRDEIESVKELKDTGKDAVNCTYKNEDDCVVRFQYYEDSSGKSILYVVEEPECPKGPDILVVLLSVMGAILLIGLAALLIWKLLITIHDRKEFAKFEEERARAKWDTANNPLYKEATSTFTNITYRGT

IC50 (Human platelets) [µM] | Inhibition of 125I-fibrinogen binding, extent at 25 μM ([1]; 25 μM) [%] | IC50 ([1]; thrombin-stimulated washed platelets, 125I-fibrinogen 0.176 μmol/liter) [µM] | SMILES | Inhibition of Fibrinogen Mediated Platelet Aggregation % inhibition at 25 μM (Human platelets) [%]
> 200 | 15 | – | CC(C)[C@H](NC(=O)[C@H](CC(=O)O)NC(=O)[C@@H]1CCN1C(=O)C1CCN(C(=N)N)CC1)C(=O)O [N-[2(S)-1-(amidinopiperidin-4-yl-carbonyl)-azetidin-2-yl-carbonyl]-L-aspartyl-L-valine] | 15
29.6 | – | > 64 | CC(C)[C@H](NC(=O)[C@H](CC(=O)O)NC(=O)[C@@H]1CCN1C(=O)C1CCNCC1)C(=O)O [N-[2(S)-1-(piperidin-4-yl-carbonyl)azetidin-2-yl-carbonyl]-L-aspartyl-L-valine] (H-[Inp][Aze]DV-OH) | 47
